The record followed here is patent US4521413A, “Cephem compounds” (Fujisawa Pharmaceutical Co., Ltd., priority 1981, dated 1985).

Values after ≈ are worked out from the molar mass of the structure shown.

As a reminder, the MIC is the lowest concentration found to suppress growth. Lower therefore signals greater potency.

Test [1] relates to B. subtilis ATCC 6633. Briefly: Minimal inhibitory concentration (MIC), agar streak test on heart infusion agar. The settings on record: Bacillus subtilis, ATCC6633, 37° C. for 20 hours, 10^8 viable cells per ml. The test is classed as cell-based. On the procedure:
(§1) One loopful of an overnight culture of each test strain in Trypticase-soy broth (10^8 viable cells per ml.) was streaked on heart infusion agar (HI-agar) containing graded concentrations of antibiotics, and the minimal inhibitory concentration (MIC) was expressed in terms of μg/ml after incubation at 37° C. for 20 hours.

The test system of test [2] is S. marcescens 35. Described as above. The settings on record: Serratia marcescens, 37° C. for 20 hours, 10^8 viable cells per ml. The test is classed as cell-based. On the procedure:
as §1

With `CCO/N=C(\C(=O)NC1C(=O)N2C(C(=O)[O-])=C(C[n+]3cccc(NC)c3)CSC12)c1nsc(N)n1` (stereo not drawn) [Test Compound (1), 7-[2-Ethoxyimino-2-(5-amino-1,2,4,-thiadiazol-3-yl)acetamido]-3-(3-methylamino-1-pyridiniomethyl)-3-cephem-4-carboxylate (syn isomer)], the minimal inhibitory concentration (MIC) stood at 0.78 µg/mL (≈ 1.5 µM) in test [1] and 1.56 µg/mL (≈ 3.01 µM) in test [2].
The like results for `CCO/N=C(\C(=O)NC1C(=O)N2C(C(=O)[O-])=C(C[n+]3cccc(N(C)C)c3)CSC12)c1nsc(N)n1` (stereo not drawn) [Test Compound (2), 7-[2-Ethoxyimino-2-(5-amino-1,2,4-thiadiazol-3-yl)acetamido]-3-(3-dimethylamino-1-pyridiniomethyl)-3-cephem-4-carboxylate (syn isomer)] were, in that order, 0.39 µg/mL (≈ 0.732 µM) and 1.56 µg/mL (≈ 2.93 µM).
The like results for `CCO/N=C(\C(=O)NC1C(=O)N2C(C(=O)[O-])=C(C[n+]3cccc(OC)c3)CSC12)c1nsc(N)n1` (stereo not drawn) [Test Compound (3), 7-[2-Ethoxyimino-2-(5-amino-1,2,4-thiadiazol-3-yl)acetamido]-3-(3-methoxy-1-pyridiniomethyl)-3-cephem-4-carboxylate (syn isomer)] were, in that order, 0.78 µg/mL (≈ 1.5 µM) and 1.56 µg/mL (≈ 3 µM).
